# Patent US8901156B2, “Compounds and methods” (Tempero Pharmaceuticals, Inc., priority 2010, dated 2014)
# Molecular target: T1, Recombinant HDAC9 isoform 4 (Homo sapiens, UniProt Q9UKV0)
# T1 construct: purchased BPS Bioscience
# Assay: Histone Deacetylase 9 (HDAC9) inhibition assay, fluorogenic substrate
# Format: biochemical
# Conditions: mean of a minimum of 2 experiments; 11 point 3x dilution series from 100 uM; substrate 4.5 uM; read-out: mean pIC50, inhibition of HDAC9 (converted)
# T1 sequence (Q9UKV0 1-1066 isoform Q9UKV0-5): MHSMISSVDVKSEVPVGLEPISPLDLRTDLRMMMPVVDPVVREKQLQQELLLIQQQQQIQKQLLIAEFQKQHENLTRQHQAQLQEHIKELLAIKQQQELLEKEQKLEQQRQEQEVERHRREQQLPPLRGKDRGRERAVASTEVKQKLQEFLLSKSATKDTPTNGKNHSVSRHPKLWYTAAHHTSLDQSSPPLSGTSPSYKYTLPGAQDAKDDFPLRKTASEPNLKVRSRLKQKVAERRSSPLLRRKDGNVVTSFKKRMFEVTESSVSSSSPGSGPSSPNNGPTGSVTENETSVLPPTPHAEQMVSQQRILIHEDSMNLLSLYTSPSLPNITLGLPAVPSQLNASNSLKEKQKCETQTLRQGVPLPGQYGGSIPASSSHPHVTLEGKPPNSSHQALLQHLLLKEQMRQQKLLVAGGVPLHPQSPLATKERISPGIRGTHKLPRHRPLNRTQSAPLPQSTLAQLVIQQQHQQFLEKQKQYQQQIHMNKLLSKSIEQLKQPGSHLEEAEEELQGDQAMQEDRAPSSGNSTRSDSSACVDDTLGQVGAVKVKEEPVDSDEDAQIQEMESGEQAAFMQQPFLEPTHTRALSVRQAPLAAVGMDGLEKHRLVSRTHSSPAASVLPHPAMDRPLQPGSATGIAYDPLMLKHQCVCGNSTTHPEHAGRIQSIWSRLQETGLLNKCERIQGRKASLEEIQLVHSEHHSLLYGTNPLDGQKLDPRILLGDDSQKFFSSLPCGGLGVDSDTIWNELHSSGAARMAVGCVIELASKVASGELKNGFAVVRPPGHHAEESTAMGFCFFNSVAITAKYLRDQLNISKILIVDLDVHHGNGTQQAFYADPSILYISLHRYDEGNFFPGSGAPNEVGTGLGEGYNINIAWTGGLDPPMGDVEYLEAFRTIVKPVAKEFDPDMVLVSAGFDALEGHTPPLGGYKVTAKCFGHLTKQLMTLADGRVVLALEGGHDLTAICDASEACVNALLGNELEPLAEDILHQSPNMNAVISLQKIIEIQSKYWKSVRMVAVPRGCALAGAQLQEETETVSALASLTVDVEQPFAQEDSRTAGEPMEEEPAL
row,SMILES,IC50 [nM]
1,"O=S(=O)(NCC1(c2nc(-c3ccccc3)cs2)CCOCC1)c1cccc(-c2noc(C(F)(F)F)n2)c1 [Example 32, N-((4-(4-Phenylthiazol-2-yl)tetrahydro-2H-pyran-4-yl)methyl)-3-(5-(trifluoromethyl)-1,2,4-oxadiazol-3-yl)benzenesulfonamide]",< 1000
2,"O=C(NCCC(O)c1coc(-c2ccc(F)cc2)n1)c1cccc(-c2noc(C(F)(F)F)n2)c1 (centres unmarked) [Example 110, N-(3-(2-(4-Fluorophenyl)oxazol-4-yl)-3-hydroxypropyl)-3-(5-(trifluoromethyl)-1,2,4-oxadiazol-3-yl)benzamide]",< 1000
3,"O=C(NCCc1nc(-c2ccccc2)no1)c1cccc(-c2noc(C(F)(F)F)n2)c1 [Example 132, N-(2-(3-Phenyl-1,2,4-oxadiazol-5-yl)ethyl)-3-(5-(trifluoromethyl)-1,2,4-oxadiazol-3-yl)benzamide]",< 1000

# Other lines, results leading:
row,IC50 [nM],SMILES
1,< 1000,"O=C(NCC1(c2nc(-c3ccncc3)cs2)CCOCC1)c1cccc(-c2noc(C(F)(F)F)n2)c1 [Example 21, N-((4-(4-(Pyridin-4-yl)thiazol-2-yl)tetrahydro-2H-pyran-4-yl)methyl)-3-(5-(trifluoromethyl)-1,2,4-oxadiazol-3-yl)benzamide]"
2,< 1000,"O=C(NCC1(c2cccc(-c3ccccc3)c2)CCOCC1)c1cncc(-c2noc(C(F)(F)F)n2)c1 [Example 78, N-((4-([1,1′-Biphenyl]-3-yl)tetrahydro-2H-pyran-4-yl)methyl)-5-(5-(trifluoromethyl)-1,2,4-oxadiazol-3-yl)nicotinamide]"
